≈ marks a conversion by molar mass, not a printed value. Where “and” joins values, the source holds several entries; their conditions need not be identical. Equal entries are not always repeated. Where two headings read alike, the source gives them in different places.
Tests used:
[1] = experimental value; ref Epi-Suite (US-EPA); cited from earlier work
hERβ [2] = system: hERβ; parameters: method as in Pelch et al.; details: HepG2-hERβ, ref Pelch et al., cited from earlier work
hERβ [3] = system: hERβ; parameters: method as in Grimaldi et al.; details: HELN-hERβ; ref Grimaldi et al.; cited from earlier work
[4] = system: Zebrafish embryos ERE-GFP-Casper; parameters: method as in Green et al. (2016); details: 120h exposure; ref Green et al. (2016); cited from earlier work
Fathead minnow = details: 4-days exposure, ref Corrales et al. (2017); cited from earlier work
zebrafish ERβ2 (zfERβ2) = zebrafish ERβ2 (zfERβ2) (Danio rerio, UniProt Q7ZU32); experiment: ZELH-zfERβ2 luciferase reporter gene assay; type: cell-based; details: % of positive control E2 10 nM
Method: The ZELH-zfERs reporter cell line was previously established after a two-step stable transfection of the zebrafish hepatic cell line ZFL with the luciferase gene under the control of ERE (yielding the ZELH cell line that expresses no functional ER) and the zebrafish ER subtype β2 (yielding the ZELH-zfERβ2 cell line). Cells were cultured, exposed to chemicals for 72 h, and measured for luciferase activity exactly as previously described. , For each chemical, serial dilutions were prepared in DMSO and tested in three independent experiments. The final DMSO concentration in the culture medium was always 0.1% v/v. All tested concentrations refer to nominal concentrations.

[5] = Refined Fish Embryo Acute Toxicity test (FET, OECD TG 236): mortality; type: in vivo, zebrafish (Danio rerio); details: tg(cyp19a1b:GFP), zebrafish, in vivo, LC50 (96h) experimental (FET test), nominal, brackets 95% CI
Method: (§1) Exposures were carried out in presaturated 24-well plates containing one embryo per well in 2 mL of test solution. The exposure was performed under semistatic conditions, with daily renewal of the test solution. The concentration ranges tested, along with a control with the same percentage of solvent alone, are recapitulated in Table S1. All exposure concentrations are reported as nominal. During the time course of the refined FET tests, embryos were observed after 8 h (coagulation), 24 h (lack of somite formation and nondetachment of the tail), and 48, 72, and 96 h of exposure (nondetection of the heartbeat). […] Moreover, hatching rate and nonlethal developmental effects (i.e., yolk deformity, growth retardation, spontaneous movement, edema, blood tail circulation, heart rate, pigmentation, head and tail/spinal malformations, and hemorrhage) were monitored daily. Tail/spinal malformations included lordosis, kyphosis, scoliosis, and reduced tail length.
(§2) This analysis considered all nonlethal developmental end points monitored in the refined FET assay (see above), except effects on hatching, pigmentation, spontaneous movement, and blood circulation. A teratogenic index (TI) was then calculated as the ratio LC50/EC50.
Baseline toxicity and experimental FET LC50 values were used to calculate toxic ratios (TR = predicted baseline toxicity LC50/experimental FET LC50). Compounds with TR < 10 were considered as baseline toxicants.

[6] = system: tg(cyp19a1b:GFP) zebrafish embryos; experiment: Refined FET: developmental effects / malformations; type: in vivo, zebrafish (Danio rerio); details: nominal
Method: as §1, §2

[7] = ref Adamovsky et al.; cited from earlier work
Zebrafish embryos = details: cited from earlier work; for LC50: read-out: LC50(96h)
[8] = system: cyp19a1b:GFP (brain aromatase) in tg(cyp19a1b:GFP) zebrafish embryos; experiment: EASZY assay (OECD TG 250): GFP induction; type: in vivo, zebrafish (Danio rerio); details: Danio rerio, 96 h
Method: The tests were conducted according to OECD TG 250. Newly fertilized cyp19a1b-GFP eggs were transferred to glass crystallizing dishes and exposed for 96 h in a humidified climate chamber (27 ± 2 °C) under semistatic conditions with a total renewal of the test solutions each day. Each condition consisted of three crystallizing dishes, each containing 7 embryos and 15 mL of test medium. Embryos were exposed to a range of nonlethal concentrations of chemicals as determined previously based on the refined FET assays. The tested concentration ranges of bisphenols, along with a control with the same percentage of solvent alone, are summarized in Table S2. All exposure concentrations are reported as nominal. At the end of exposure, transgenic zebrafish embryos were collected for fluorescence imaging to quantify GFP intensity. At the end of the experiments, all living zebrafish embryos were euthanized as described above. […] ICI was added together with bisphenols from 0 to 4 dpf (days post fertilization). […] In all coexposure experiments, the final DMSO concentration was 0.02% (v/v).
For fluorescence imaging, GFP fold induction was expressed as mean ± SEM, and values were compared to the DMSO control using one-way ANOVA followed by Dunnett’s posthoc test. […]

[9] = 72h exposure, ref Duan et al. (2008)
[10] = 120h-exposure, ref Qiu et al. (2021)
[11] = 150h exposure, ref Song et al. (2014)
[12] = zebrafish embryos, ref Ren et al. (2017)

zebrafish ERβ2 (zfERβ2), sequence (Q7ZU32 1-553): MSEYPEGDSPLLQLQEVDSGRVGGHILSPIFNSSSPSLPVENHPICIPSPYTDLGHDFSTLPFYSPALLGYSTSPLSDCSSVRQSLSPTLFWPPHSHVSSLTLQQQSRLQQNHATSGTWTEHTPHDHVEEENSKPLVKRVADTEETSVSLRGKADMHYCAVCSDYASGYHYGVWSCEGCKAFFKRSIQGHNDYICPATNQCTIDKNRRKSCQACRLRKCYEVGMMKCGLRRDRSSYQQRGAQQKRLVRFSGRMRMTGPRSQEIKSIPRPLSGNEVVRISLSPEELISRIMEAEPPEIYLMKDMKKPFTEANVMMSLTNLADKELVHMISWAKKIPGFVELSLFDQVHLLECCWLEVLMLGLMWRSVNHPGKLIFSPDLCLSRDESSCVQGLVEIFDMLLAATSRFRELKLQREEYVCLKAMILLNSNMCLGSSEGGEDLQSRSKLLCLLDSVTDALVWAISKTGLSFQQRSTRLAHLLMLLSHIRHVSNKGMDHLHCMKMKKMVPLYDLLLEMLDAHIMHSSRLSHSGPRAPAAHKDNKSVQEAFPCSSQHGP

For `CC(C)(c1ccc(O)cc1)c1ccc(O)cc1` [BPA, 4-[2-(4-hydroxyphenyl)propan-2-yl] phenol], the Water solubility [1] is given as 300 µg/mL, the EC50 (hERβ [2]; NA = not active) is given as 0.35 µM and the maximal efficacy (hERβ [2]) is given as 97%. The EC50 (hERβ [3]) was 0.384 µM, the maximal efficacy (hERβ [3]) was 66% and the EC50 [4] was 1.226 µg/mL (≈ 5.37 µM). The LOEC [4] was 1000 µg/L and 4380.32 nM, the “LC50(96h)” value (Fathead minnow) was 4.2 µg/mL (≈ 18.4 µM) and the maximal efficacy (zebrafish ERβ2 (zfERβ2)) was 55%. For the same molecule, the LC50 at 96 h [5] was 14.1 µg/mL (≈ 61.9 µM), the EC50 ([6]; Danio rerio, end of 96 h exposure, read-out: EC50 malformations (cumulative sublethal end points)) was 6.06 µg/mL (≈ 26.5 µM) and the LOEC edema [6] was 10 mg/L. For the same molecule, the LOEC growth retardation [6] was 20 mg/L, the “LOEC heart rate disruption” value [6] was 20 mg/L and the LOEC hemorrhage [6] was 10 mg/L. For the same molecule, the “LOEC no spontaneous movement” value [6] was 10 mg/L, the “LOEC no/Less pigmentation” value [6] was 10 mg/L and the LOEC tail/spinal malformations [6] was 10 mg/L. For the same molecule, the “LOEC deformity of yolk” value ([6]; at least 10% of embryos affected) was 20 mg/L, the “Log Kow” value [7] was 3.32 and the mortality (Zebrafish embryos; 100 µM (23 mg/L) at 72h, ref Björnsdotter et al. (2017)) was 100%. The mortality (Zebrafish embryos; 20 mg/L, 48h, ref Makarova et al. (2016)) was 65%, the “LC10(96h)” value (Zebrafish embryos; 4-days exposure, ref Blanc et al. (2019)) was 6.62 µg/mL (≈ 29 µM) and the “LC50(48h)” value (Zebrafish embryos; 4-days exposure, ref Tišler et al. (2016)) was 15.9 (13.8-18.3) mg/L. The mortality (Zebrafish embryos; 5-15 µM, ref McCormick et al. (2010)) was 4-8%, the “LC50(24h)” value (Zebrafish embryos; [9]) was 16.75 µg/mL (≈ 73.4 µM) and the NOEC (Zebrafish embryos; [9]) was 2 mg/L. The “LOEC (body length, GnRH3 neurons, reproductive neuroendocrine-related genes and hormones)” value (Zebrafish embryos; [10]) was 100 µg/L, the “NOEC (body length, GnRH3 neurons, reproductive neuroendocrine-related genes and hormones)” value (Zebrafish embryos; [10]) was 1 µg/L and the “LC50(144h)” value (Zebrafish embryos; [11]) was 7.5 µg/mL (≈ 32.9 µM). For the same molecule, the LOAELs (Zebrafish embryos; [11]) was 5 mg/L, the “NOEC (developmental toxicity)” value (Zebrafish embryos; Wildtype (AB/TL), 1-6 dpf static + 6-9 dpf semistatic, ref Catron et al. (2018; 2019)) was 11.5 µM and the “LC50(96h)” value (Zebrafish embryos; Zebrafish, 4-days exposure, ref Corrales et al. (2017)) was 12.8 µg/mL (≈ 56.1 µM). The “scoliosis (% of embryos)” value (Zebrafish embryos; at 8.041 mg/L, 2-5 dpf exposure, ref Martínez et al. (2019)) was 16%, the mortality (Zebrafish embryos; at 25 mg/L, ref Duan et al. (2008)) was 100% and the LC50 (Zebrafish embryos; 4-days exposure, ref Chow et al. (2013)) was 35 µM. For the same molecule, the LC50 (Zebrafish embryos; Wildtype AB, 96h-exposure, ref Arrokhman et al. (2023)) was 57.1 µM, the “delayed hatching EC50(96h)” value (Zebrafish embryos; ref Chow et al. (2013)) was 5.25 µg/mL and the “LC50(5dpf)” value (Zebrafish embryos; ref McCormick et al. (2011)) was 5 (±0.89) mg/L. For the same molecule, the “LC50(28dpf)” value (Zebrafish embryos; ref McCormick et al. (2011)) was 1.8 µg/mL (≈ 7.88 µM), the “LOAEL(5dpf)” value (Zebrafish embryos; ref McCormick et al. (2011)) was 1 mg/L and the “Edema EC50(48h)” value (Zebrafish embryos; ref Tišler et al. (2016)) was 13.9 (8.5-22.8) mg/L. For the same molecule, the “Hatching inhibition EC50(72h)” value (Zebrafish embryos; ref Tišler et al. (2016)) was 4.0 µg/mL, the “Missing blood flow EC50(48h)” value (Zebrafish embryos; ref Tišler et al. (2016)) was 12.3 µg/mL and the “Pigmentation EC50(48h)” value (Zebrafish embryos; ref Tišler et al. (2016)) was 3.6 (2.5-5.3) mg/L. For the same molecule, the “LC50 (96h) literature” value (Zebrafish embryos; zebrafish embryos, 95% CI, ref Chow et al.) was 8.041 [7.846;8.24] mg/L, the “LC50 (96h) literature” value (Zebrafish embryos; zebrafish embryos, 95% CI, ref Mu et al.) was 10.4 [9.44–11.58] mg/L and the “LC50 (96h) literature” value (Zebrafish embryos; zebrafish embryos, parentheses SEM, ref Moreman et al.) was 12 (0.22) mg/L. For the same molecule, the “LC50 (96h) literature” value (Zebrafish embryos; zebrafish embryos, ref Arrokhman et al.) was 13 mg/L (≈ 56.9 µM), the “LC50 (96h) literature” value (Zebrafish embryos; zebrafish embryos, ref Blanc et al.) was 9.82 mg/L (≈ 43 µM) and the “LC50 (96h) literature” value (Zebrafish embryos; zebrafish embryos, ref Gao et al.) was 11.69 mg/L (≈ 51.2 µM). The “Body length LOEC” value (Zebrafish embryos; [12]) was 4 mg/L, the “Body length NOEC” value (Zebrafish embryos; [12]) was 2 mg/L and the “LC50 (96h) literature” value (Zebrafish embryos; zebrafish embryos, ref Ren et al.) was 5.82 mg/L (≈ 25.5 µM). It also gave a minimal effective concentration ([8]; read-out: EASZY LOEC (GFP induction), nominal) of 0.625 µg/mL and an EC50 ([8]; read-out: EASZY relative EC50, nominal) of 0.98 µg/mL (≈ 4.29 µM).
